In patent US20130072505A1, “6,9-Disubstituted Purine Derivatives and Their Use for Treating Skin” (priority 2006, published 2013):

How the values were obtained:
[1] = system: Female SKH-1 hairless mice; assay: topical skin anti-aging treatment, hairless mouse model; type: in vivo; details: 3 weeks
From the text: The safety and efficacy of the 6,9-disubstituted purine derivatives of this invention as topical skin anti-aging treatments were examined using the hairless mouse model (a well established model for studying the treatments of photoaging). Female SKH-1 hairless mice (5 weeks old, 20-25 grams, Charles River Laboratories, Wilmington, Mass.) were individually housed in filter-top cages, and acclimated for 5-7 days after delivery. […] Water and mouse chow are provided ad libitum. The experimental groups (6 mice per group) included the following treatments: (1) Untreated control; (2) Vehicle control (MillCreek Lotion); […] The various treatments were applied daily (Monday-Friday) for 3 weeks to the dorsal skin (about 2 cm×2 cm) of the hairless mice at a dosage rate of about 20 mg. At baseline (prior to the 1st treatment), and weekly, the dorsal skin was measured for transepidermal water loss (TEWL), skin moisture content, and skin elasticity. […] This instrument was equipped with dual probes which are placed on the skin surface and a quantitative measurement taken of the respective parameters and the measurements recorded on an integrated computer. […] The slides were weakly counter stained in Mayer's hematoxylin and scored under a light microscope for the number of BrdU-positive cells per mm of epidermis for each section. […]

[2] = system: Chinese hamster ovary (CHO) cells; assay: In Vitro Chromosome Aberration Screening Assay; type: cell-based; details: 0.272 to 272 μg/ml; absence and presence of S9
Procedure: 6-Furfurylamino-9-(2-tetrahydropyranyl)purine was tested in the chromosome aberration screening assay using Chinese hamster ovary (CHO) cells in both the absence and presence of an Acroclor-induced S9 activation system to evaluate its clastogenic potential. DMSO was used as the solvent and the dose rate ranged from 0.272 to 272 μg/ml.

SMILES: c1coc(CNc2ncnc3c2ncn3C2CCCCO2)c1 (stereo not drawn) [6-furfurylamino-9-(2-tetrahydropyranyl)purine]
- erythema (irritation) score ([1]; topical daily (Monday-Friday), Grade 0=no response to Grade 6=necrosis): < 1 Grade
- Skin Moisture Content (skin conductance) ([1]; topical daily): one of the highest increases in skin moisture
- induction of structural and numerical chromosome aberrations [2]: negative for the induction of structural and numerical chromosome aberrations
